PubChem BioAssay AID2060883 (Molecular Pharmacology Branch, DTP, NCI, 2025)

Tested on: 843782-103-R-J1-PDC complex spheroid viability
Assay: Anticancer human tumor 843782-103-R-J1-PDC patient-derived lung adenocarcinoma cell line growth inhibition [RAS]
Details: for IC50: curve of first compound; for viability, T/C: stronger effect = lower value
Outline: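 Agents were tested in combination matrices in half-log decrements from a top concentration at or near clinical Cmax (10 microM if undetermined). Targets were multi-cell spheroids of tumour lines plus HUVEC and MSC stromal cells.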
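Note: viability read after seven days of compound exposure.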

CC(C)NCC(C(=O)N1CCN(c2ncnc3c2C(C)CC3O)CC1)c1ccc(Cl)cc1 (centres undefined) + CCn1c(-c2cccnc2C(C)OC)c2c3cc(ccc31)N1CCOC(CC(NC(=O)C(C(C)C)N(C)C(=O)C3(F)CCN(C(=O)C#CC(C)(C)N(C)C)CC3)C(=O)N3CCCC(N3)C(=O)OCC(C)(C)C2)C1
IC50 (second compound 0.000949 µM): 287 nM | IC50 (second compound 0.003 µM): 325 nM | IC50 (second compound 0.00949 µM): 402 nM | IC50 (second compound 0.03 µM): 309 nM | IC50 (second compound 0.0949 µM): 403 nM | IC50 (second compound 0.3 µM): 174 nM | viability, T/C (second compound 0.000949 µM, first compound 0.0316 µM): 74.5% | viability, T/C (second compound 0.000949 µM, first compound 0.1 µM): 68.8% | viability, T/C (second compound 0.000949 µM, first compound 0.316 µM): 48.5% | viability, T/C (second compound 0.000949 µM, first compound 1 µM): 19.6% | viability, T/C (second compound 0.000949 µM, first compound 3.16 µM): 10.8% | viability, T/C (second compound 0.000949 µM, first compound 10 µM): 4.86% | viability, T/C (second compound 0.003 µM, first compound 0.0316 µM): 74.1% | viability, T/C (second compound 0.003 µM, first compound 0.1 µM): 71.3% | viability, T/C (second compound 0.003 µM, first compound 0.316 µM): 47.5% | viability, T/C (second compound 0.003 µM, first compound 1 µM): 30% | viability, T/C (second compound 0.003 µM, first compound 3.16 µM): 12.4% | viability, T/C (second compound 0.003 µM, first compound 10 µM): 7.3% | viability, T/C (second compound 0.00949 µM, first compound 0.0316 µM): 68.2% | viability, T/C (second compound 0.00949 µM, first compound 0.1 µM): 65.3% | viability, T/C (second compound 0.00949 µM, first compound 0.316 µM): 55.9% | viability, T/C (second compound 0.00949 µM, first compound 1 µM): 30% | viability, T/C (second compound 0.00949 µM, first compound 3.16 µM): 13.9% | viability, T/C (second compound 0.00949 µM, first compound 10 µM): 4.79% | viability, T/C (second compound 0.03 µM, first compound 0.0316 µM): 72.9% | viability, T/C (second compound 0.03 µM, first compound 0.1 µM): 66% | viability, T/C (second compound 0.03 µM, first compound 0.316 µM): 50.5% | viability, T/C (second compound 0.03 µM, first compound 1 µM): 24.8% | viability, T/C (second compound 0.03 µM, first compound 3.16 µM): 13.8% | viability, T/C (second compound 0.03 µM, first compound 10 µM): 6.84% | viability, T/C (second compound 0.0949 µM, first compound 0.0316 µM): 70.8% | viability, T/C (second compound 0.0949 µM, first compound 0.1 µM): 66.3% | viability, T/C (second compound 0.0949 µM, first compound 0.316 µM): 56.9% | viability, T/C (second compound 0.0949 µM, first compound 1 µM): 27.1% | viability, T/C (second compound 0.0949 µM, first compound 3.16 µM): 11.5% | viability, T/C (second compound 0.0949 µM, first compound 10 µM): 5.05% | viability, T/C (second compound 0.3 µM, first compound 0.0316 µM): 63.4% | viability, T/C (second compound 0.3 µM, first compound 0.1 µM): 60% | viability, T/C (second compound 0.3 µM, first compound 0.316 µM): 39.8% | viability, T/C (second compound 0.3 µM, first compound 1 µM): 23.2% | viability, T/C (second compound 0.3 µM, first compound 3.16 µM): 11.3% | viability, T/C (second compound 0.3 µM, first compound 10 µM): 5.97%

NC1c2ccccc2OC12CCN(c1cnc3c(N4CCCc5ncccc54)n[nH]c3n1)CC2 (centres undefined) + C=CC(=O)N1CCN(c2nc(OCC3CCCN3C)nc3c(F)c(-c4nc(N)cc(C)c4C(F)(F)F)c(Cl)cc23)C(C)C1
IC50 (second compound 0.00316 µM): 49.3 nM | IC50 (second compound 0.01 µM): < 31.6 nM | IC50 (second compound 0.0316 µM): < 31.6 nM | IC50 (second compound 0.1 µM): 39.9 nM | IC50 (second compound 0.316 µM): 44.1 nM | IC50 (second compound 1 µM): 37.2 nM | viability, T/C (second compound 0.00316 µM, first compound 0.0316 µM): 58.4% | viability, T/C (second compound 0.00316 µM, first compound 0.1 µM): 35.8% | viability, T/C (second compound 0.00316 µM, first compound 0.316 µM): 30.5% | viability, T/C (second compound 0.00316 µM, first compound 1 µM): 23.7% | viability, T/C (second compound 0.00316 µM, first compound 3.16 µM): 30.8% | viability, T/C (second compound 0.00316 µM, first compound 10 µM): 16.8% | viability, T/C (second compound 0.01 µM, first compound 0.0316 µM): 49.1% | viability, T/C (second compound 0.01 µM, first compound 0.1 µM): 35.5% | viability, T/C (second compound 0.01 µM, first compound 0.316 µM): 28.5% | viability, T/C (second compound 0.01 µM, first compound 1 µM): 22.8% | viability, T/C (second compound 0.01 µM, first compound 3.16 µM): 20.3% | viability, T/C (second compound 0.01 µM, first compound 10 µM): 20.2% | viability, T/C (second compound 0.0316 µM, first compound 0.0316 µM): 44.9% | viability, T/C (second compound 0.0316 µM, first compound 0.1 µM): 34.4% | viability, T/C (second compound 0.0316 µM, first compound 0.316 µM): 30.4% | viability, T/C (second compound 0.0316 µM, first compound 1 µM): 25.6% | viability, T/C (second compound 0.0316 µM, first compound 3.16 µM): 24.7% | viability, T/C (second compound 0.0316 µM, first compound 10 µM): 21.3% | viability, T/C (second compound 0.1 µM, first compound 0.0316 µM): 55% | viability, T/C (second compound 0.1 µM, first compound 0.1 µM): 34% | viability, T/C (second compound 0.1 µM, first compound 0.316 µM): 28.2% | viability, T/C (second compound 0.1 µM, first compound 1 µM): 26.2% | viability, T/C (second compound 0.1 µM, first compound 3.16 µM): 22.9% | viability, T/C (second compound 0.1 µM, first compound 10 µM): 15% | viability, T/C (second compound 0.316 µM, first compound 0.0316 µM): 54.4% | viability, T/C (second compound 0.316 µM, first compound 0.1 µM): 39.8% | viability, T/C (second compound 0.316 µM, first compound 0.316 µM): 29.7% | viability, T/C (second compound 0.316 µM, first compound 1 µM): 23.1% | viability, T/C (second compound 0.316 µM, first compound 3.16 µM): 20.9% | viability, T/C (second compound 0.316 µM, first compound 10 µM): 22.1% | viability, T/C (second compound 1 µM, first compound 0.0316 µM): 52.1% | viability, T/C (second compound 1 µM, first compound 0.1 µM): 38.3% | viability, T/C (second compound 1 µM, first compound 0.316 µM): 25.2% | viability, T/C (second compound 1 µM, first compound 1 µM): 25.4% | viability, T/C (second compound 1 µM, first compound 3.16 µM): 25.3% | viability, T/C (second compound 1 µM, first compound 10 µM): 18%
